Experimental findings from US20240101572A1, “DIHYDROOXADIAZINONE COMPOUND AND PHARMACEUTICAL USE THEREOF” (Japan Tobacco Inc., priority 2022, published 2024) are described below.

Structures are written as SMILES. Where two headings read alike, the source gives them in different places.

The target of one assay is full-length human PLD2 (Homo sapiens (Human), UniProt O14939). Description: Evaluation of human PLD2 enzyme inhibitory activity (Amplex Red / choline oxidase fluorescence). To be noted: for IC50: full-length human PLD2 enzyme, read-out: PLD2 IC50. The class given is biochemical. The protocol:
A method for measuring human PLD2 enzyme inhibitory activity using an enzyme in which a FLAG-tag is added to the N-terminus of full-length human PLD2 (1-933 amino acids) is shown below.
(§1) DNA fragment in which a FLAG-tag sequence is added to the 5′-end of full-length human PLD2 was amplified by PCR method, using commercially available human PLD2 gene (Promega KK) as a template. The amplified DNA fragment was fused with vector pVL1393 for baculovirus production (Pharmingen) digested with BamHI and EcoRI, using In-Fusion HD Cloning Kit (Takara Bio). The full-length human PLD2-expression plasmid DNA for baculovirus was isolated from Escherichia coli DH5a (TOYOBO) transformed with the obtained In-Fusion reaction product. Next, DNA fragment in which a FLAG-tag sequence is added to the 5′-end of full-length human PLD2 was amplified by PCR method, using the full-length human PLD2-expression plasmid DNA for baculovirus as a template. The amplified DNA fragment was fused with a DNA fragment in which a linker sequence is introduced into pcDNA3.4-TOPO (Life Technologies), using In-Fusion HD Cloning Kit (Takara Bio). The full-length human PLD2-expression plasmid DNA for animal cells was isolated from Escherichia coli DH5a transformed with the obtained In-Fusion reaction product. The base sequence of the full-length human PLD2 cloned into vector was determined by a Dye Terminator method using BigDye Terminator v3.1 Cycle Sequencing Kit (Applied Biosystems). The determined sequence was a sequence in which the FLAG-tag sequence was inserted at the 5′-end of the full-length human PLD2 (GenBank Accession Number: NM 002663).
(§2) Expi293F cells (Life Technologies) were cultured with shaking using Expi293 Expression Medium (Life Technologies) as a medium at 37° C. in the presence of 8% CO2. The gene introduction reagent PEI was prepared by dissolving Polyethylenimine Max (nominally MW 40,000) (Polysciences) in MilliQ water, adjusting the pH of the solution to 7.0 with NaOH to obtain a 1 mg/mL solution, and then filtering the solution through 0.22 μm filter. The full-length human PLD2-expression plasmid DNA for animal cells was transfected into Expi293F cells using PEI, and after 48 hours of shaking culture, the cells were collected and stored at −80° C.
(§3) To the full-length human PLD2-expressed cells was added a Homogenate buffer (20 mmol/L Na-phosphate pH 7.5, 250 mmol/L NaCl, 1 mmol/L MgCl2, 1% β-OG, 0.05 mmol/L DTT+complete EDTA-free (Roche Diagnostics K.K.)), and the cells were lysed by Microfluidizer Processor M-110EH (Mizuho Kogyo Co., Ltd.). The lysate was centrifuged at 10,100×g at 4° C. for 15 minutes, and the supernatant was collected and filtered through 0.45 μm filter. To the centrifuged supernatant was added ANTI-FLAG M2 Affinity Gel (SIGMA-Aldrich) resin equilibrated with a Homogenate buffer, and the mixed solution was stirred at 4° C. for 1 hr or more. The mixed solution was loaded onto Poly-Prep column, and the resin was washed with a Wash buffer (20 mmol/L Na-phosphate pH 7.5, 150 mmol/L NaCl, 1 mmol/L MgCl2, 0.02% Triton, 0.05 mmol/L DTT). A Wash buffer containing 400 μg/mL DYKDDDDK Peptide (Scrum Inc.) was added to the column to elute the protein bound to the resin. The eluted fractions were subjected to SDS-PAGE followed by CBB staining to identify the fractions containing the full-length human PLD2. The eluted fractions of the full-length human PLD2 were collected and concentrated using Amicon Ultra-15 100k (Merck Millipore). The concentrated fractions were collected, flash-frozen in liquid nitrogen and stored at −80° C.
(§4) A DMSO or test substance solution (the DMSO final concentration: 5%) prepared by diluting DMSO or test substance with an Assay buffer (50 mmol/L HEPES pH 7.5, 80 mmol/L KCl, 3 mmol/L EGTA, 3.6 mmol/L MgCl2, 0.01% NP-40, 0.1% BSA), and the solution was added to a 384 well Assay Plate (Black, Polystyrene, Non-Treated, Cat No. 3573, Corning) by 5 μL/well. […]

The target in a further assay is full-length human PLD1 (Homo sapiens (Human), UniProt Q13393). The experiment in a line: Evaluation of human PLD1 enzyme inhibitory activity (Amplex Red / choline oxidase fluorescence). The assay is classed as biochemical. The conditions noted are these: for IC50: full-length human PLD1 enzyme, read-out: PLD1 IC50. The procedure:
A method for measuring human PLD1 enzyme inhibitory activity using an enzyme in which a FLAG-tag is added to the N-terminus of full-length human PLD1 (1-1036 amino acids) is shown below.
as §1, with “PLD1” for “PLD2”, “PLD1-expression” for “PLD2-expression”, “NM_001130081).” for “NM 002663).”
as §2, with “PLD1-expression” for “PLD2-expression”
as §3, with “PLD1-expressed” for “PLD2-expressed”, “PLD1.” for “PLD2.”, “PLD1” for “PLD2”
as §4

Sequence of full-length human PLD2 (O14939 whole entry, the tested form may be a part): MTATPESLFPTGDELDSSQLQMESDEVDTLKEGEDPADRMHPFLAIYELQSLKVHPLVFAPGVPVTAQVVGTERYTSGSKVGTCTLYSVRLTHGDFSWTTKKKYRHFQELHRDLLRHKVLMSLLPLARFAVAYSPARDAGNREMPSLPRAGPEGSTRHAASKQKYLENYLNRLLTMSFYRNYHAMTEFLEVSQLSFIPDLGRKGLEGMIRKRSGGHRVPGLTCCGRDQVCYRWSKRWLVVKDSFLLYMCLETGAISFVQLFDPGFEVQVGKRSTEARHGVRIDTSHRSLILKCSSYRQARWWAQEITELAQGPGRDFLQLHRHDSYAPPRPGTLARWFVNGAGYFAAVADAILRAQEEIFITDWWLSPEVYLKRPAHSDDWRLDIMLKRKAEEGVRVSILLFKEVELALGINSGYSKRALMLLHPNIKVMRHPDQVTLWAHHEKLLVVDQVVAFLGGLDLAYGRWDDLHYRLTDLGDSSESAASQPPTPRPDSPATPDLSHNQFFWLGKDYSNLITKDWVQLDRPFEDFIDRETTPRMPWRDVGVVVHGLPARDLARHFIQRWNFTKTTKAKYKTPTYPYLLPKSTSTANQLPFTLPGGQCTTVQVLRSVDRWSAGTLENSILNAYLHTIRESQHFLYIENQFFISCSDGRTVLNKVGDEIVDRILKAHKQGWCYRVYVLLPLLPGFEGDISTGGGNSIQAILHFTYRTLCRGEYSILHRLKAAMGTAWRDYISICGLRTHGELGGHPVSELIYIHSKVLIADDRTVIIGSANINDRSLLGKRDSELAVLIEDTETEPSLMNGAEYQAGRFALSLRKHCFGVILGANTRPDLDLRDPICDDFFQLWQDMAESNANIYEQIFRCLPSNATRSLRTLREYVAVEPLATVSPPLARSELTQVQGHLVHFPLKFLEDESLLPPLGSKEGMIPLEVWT
Sequence of full-length human PLD1 (Q13393 other isoform, or with tags, fused parts or gaps): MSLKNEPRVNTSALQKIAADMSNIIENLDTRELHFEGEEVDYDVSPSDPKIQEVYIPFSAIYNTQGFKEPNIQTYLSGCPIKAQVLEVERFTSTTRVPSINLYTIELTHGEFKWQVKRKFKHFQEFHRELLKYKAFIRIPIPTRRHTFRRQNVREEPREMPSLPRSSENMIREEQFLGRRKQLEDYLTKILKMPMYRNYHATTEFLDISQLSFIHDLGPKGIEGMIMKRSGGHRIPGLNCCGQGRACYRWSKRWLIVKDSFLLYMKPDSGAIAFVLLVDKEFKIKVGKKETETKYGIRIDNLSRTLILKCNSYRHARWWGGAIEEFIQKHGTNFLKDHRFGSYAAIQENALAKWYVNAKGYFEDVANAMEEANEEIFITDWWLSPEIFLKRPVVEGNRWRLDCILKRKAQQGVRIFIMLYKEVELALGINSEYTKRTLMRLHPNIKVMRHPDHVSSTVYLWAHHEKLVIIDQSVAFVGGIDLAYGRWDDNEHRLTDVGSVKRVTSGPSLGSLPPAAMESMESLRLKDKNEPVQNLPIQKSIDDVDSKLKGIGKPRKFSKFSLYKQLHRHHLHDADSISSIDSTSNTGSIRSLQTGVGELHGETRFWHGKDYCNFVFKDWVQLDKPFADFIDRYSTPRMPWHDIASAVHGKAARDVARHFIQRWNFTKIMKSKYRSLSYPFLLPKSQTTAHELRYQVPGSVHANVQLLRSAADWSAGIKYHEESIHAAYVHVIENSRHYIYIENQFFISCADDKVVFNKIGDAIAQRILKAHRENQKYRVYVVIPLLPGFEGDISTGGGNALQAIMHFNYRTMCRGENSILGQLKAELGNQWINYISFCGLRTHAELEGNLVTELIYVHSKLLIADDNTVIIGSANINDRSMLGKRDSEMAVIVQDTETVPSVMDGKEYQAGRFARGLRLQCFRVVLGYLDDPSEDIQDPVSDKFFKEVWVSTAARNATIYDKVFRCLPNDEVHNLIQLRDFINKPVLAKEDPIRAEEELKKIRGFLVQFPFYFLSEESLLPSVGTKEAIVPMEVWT

For `CNC(=O)C(=O)N[C@@H](C)CN1CCC2(CC1)OC(=O)NN=C2c1cccc(F)c1Br` [Example 2-030], the IC50 stood at 18 nM on full-length human PLD2 and 31 nM on full-length human PLD1.

Take `Cc1cc(C(=O)NC(C)CN2CCC3(CC2)OC(=O)NN=C3c2cccc(F)c2Br)[nH]n1` (stereo not shown) [Example 2-031]: the IC50 was below 10 nM on full-length human PLD2 and 19 nM on full-length human PLD1.

As to `CNC(=O)C(=O)N[C@@H](C)C[C@H]1CC[C@]2(CC1)OC(=O)NN=C2c1cc(C(=O)OC)ccc1Br` [Example 2-032], the IC50 was below 10 nM on full-length human PLD2 and 11 nM on full-length human PLD1.

Regarding `CNC(=O)C(=O)N[C@@H](C)CN1CCC2(CC1)OC(=O)NN=C2c1cc(C(=O)OC)ccc1Br` [Example 2-033], the IC50 is below 10 nM at full-length human PLD2 and 35 nM at full-length human PLD1.

As for `CNC(=O)C(=O)N[C@@H](C)CN1CCC2(CC1)OC(=O)NN=C2c1cc(C(C)(C)O)ccc1Br` [Example 2-034], the IC50 on full-length human PLD2 amounted to 10 nM; on full-length human PLD1 it was 31 nM.

For the compound `CNC(=O)C(=O)N[C@@H](C)C[C@H]1CC[C@]2(CC1)OC(=O)NN=C2c1cc(C(=O)NC)ccc1Br` [Example 2-035], the half-maximal inhibitory concentration (IC50) was below 10 nM on full-length human PLD2 and 21 nM on full-length human PLD1.

In the case of `CNC(=O)C(=O)N[C@@H](C)C[C@H]1CC[C@]2(CC1)OC(=O)NN=C2c1cc(C(=O)N(C)C)ccc1Br` [Example 2-036], the IC50 on full-length human PLD2 is below 10 nM; at full-length human PLD1, 17 nM.

`CNC(=O)C(=O)N[C@@H](C)CN1CCC2(CC1)OC(=O)NN=C2c1cc(C(=O)NC)ccc1Br` [Example 2-037]: the IC50 at full-length human PLD2 was found to be 13 nM; on full-length human PLD1, 43 nM.

For `CNC(=O)C(=O)N[C@@H](C)CN1CCC2(CC1)OC(=O)NN=C2c1cc(C(=O)N(C)C)ccc1Br` [Example 2-038], the IC50 worked out at 11 nM at full-length human PLD2 and 60 nM at full-length human PLD1.

For the compound `CNC(=O)C(=O)N[C@@H](C)CN1CCC2(CC1)OC(=O)NN=C2c1cccn2nccc12` [Example 2-039], the IC50 was determined as 264 nM at full-length human PLD2 and 153 nM at full-length human PLD1.

Consider `CNC(=O)C(=O)N[C@@H](C)C[C@]1(C#N)CC[C@@]2(CC1)OC(=O)NN=C2c1cc(C#N)ccc1Br` [Example 2-040], for which the IC50 was below 10 nM at full-length human PLD2 and 21 nM on full-length human PLD1.

On to `CNC(=O)/C=C/C(=O)N[C@@H](C)CN1CCC2(CC1)OC(=O)NN=C2c1cc(C#N)ccc1Br` [Example 2-041], for which the IC50 on full-length human PLD2 is 103 nM; on full-length human PLD1 it was 148 nM.

With `C[C@@H](CN1CCC2(CC1)OC(=O)NN=C2c1cc(C#N)ccc1Br)NC(=O)/C=C/C(=O)ON1C(=O)CCC1=O` [Example 2-042], the IC50 was found to be 383 nM at full-length human PLD2 and 3020 nM on full-length human PLD1.

For the compound `CNC(=O)C(=O)N[C@@H](C)CN1CCC2(CC1)OC(=O)NN=C2c1cn(C)nc1I` [Example 2-043], the IC50 came to 152 nM at full-length human PLD2 and 33 nM on full-length human PLD1.

As to `CNC(=O)C(=O)N[C@@H](C)C[C@H]1CC[C@]2(CC1)OC(=O)NN=C2c1cc(Cl)ccc1I` [Example 2-044], the half-inhibitory concentration (IC50) on full-length human PLD2 and at full-length human PLD1 was below 10 nM in each case.

Take `C[C@@H](C[C@H]1CC[C@]2(CC1)OC(=O)NN=C2c1cc(C(C)(C)O)ccc1Br)NC(=O)C(=O)NC1CC1` [Example 2-045]: the 50% inhibitory concentration (IC50) at full-length human PLD2 was below 10 nM; on full-length human PLD1 it was 18 nM.

`C[C@@H](C[C@H]1CC[C@]2(CC1)OC(=O)NN=C2c1cn(C)nc1I)NC(=O)c1cc(Cl)no1` [Example 2-046]: the IC50 on full-length human PLD2 turned out to be 118 nM; at full-length human PLD1, 24 nM.

With `C[C@@H](CN1CCC2(CC1)OC(=O)NN=C2c1cc(C#N)ccc1Br)NC(=O)/C=C\C(=O)O` [Example 2-047], the inhibition at 10 µM at full-length human PLD2 (10 μM compound, read-out: PLD2 inhibition rate at 10 μM) was 34%; at full-length human PLD2 (read-out: inhibition rate of PLD2 at 10 μM compound) it was 34%; on full-length human PLD1 (10 μM compound, read-out: PLD1 inhibition rate at 10 μM) it was 32%; at full-length human PLD1 (read-out: inhibition rate of PLD1 at 10 μM compound), 32%.

Turning to `CNC(=O)C(=O)N[C@@H](C)C[C@H]1CC[C@]2(CC1)OC(=O)NN=C2c1cc(OC)c(F)cc1Br` [Example 2-050], the values for the IC50 on full-length human PLD2 and on full-length human PLD1 were below 10 nM and 12 nM, respectively.

Turning to `CNC(=O)C(=O)N[C@@H](C)CN1CCC2(CC1)OC(=O)NN=C2c1cccc(C(F)(F)F)c1Br` [Example 2-051], the IC50 was below 10 nM at full-length human PLD2 and 25 nM on full-length human PLD1.

Turning to `Cc1cc(C(=O)N[C@@H](C)CN2CCC3(CC2)OC(=O)NN=C3c2cccc(C(F)(F)F)c2Br)[nH]n1` [Example 2-052], the IC50 on full-length human PLD2 was below 10 nM; on full-length human PLD1, 21 nM.

With `C[C@@H](CN1CCC2(CC1)OC(=O)NN=C2c1cc(C#N)ccc1Br)NC(=O)c1cncn1C` [Example 2-053], the results for the half-inhibitory concentration (IC50) on full-length human PLD2 and at full-length human PLD1 were 245 nM and 676 nM, respectively.
